# Laboratory results published in patent US20050090433A1 (priority 2002, published 2005).
# Read-outs that look alike come from different tables or passages of the source.
# How the values were obtained:
# [1] = tested on: S. aureus; test: Dalbavancin MIC, baseline isolates of SSTI trial; assay type: cell-based; conditions: MITT
# [2] = SSTI trial: adverse events; assay type: in vivo, human
# Procedure: (§1) This randomized, controlled study evaluated the safety and efficacy of two dose regimens of dalbavancin.
# Each patient who received at least one dose of study drug (ITT population) was evaluated for drug safety through monitoring of adverse events (AE), including abnormal clinical laboratory test results and vital signs. AE were rated by the investigator as to their severity (mild, moderate, severe, life-threatening), and by the relationship to the study drug (not related, unlikely related, possibly related, or probably related).
# [3] = rat, in vivo
# Procedure: (§2) Excreta and more than 40 different tissues were collected through 70 days post-administration, and the tissue distribution and pharmacokinetics of drug-derived radioactivity were determined.
# Following dose administration, urine and feces were collected at 24 hour intervals to 14, 36, and 70 days after the dose (3 rats/final collection time). Water and methanol cage washes were also collected. Carcasses were analyzed at the end of the collection period. AU samples were analyzed for total radioactivity content by liquid scintillation counting (LSC).
# [4] = tested on: Group B streptococcus; test: Dalbavancin MIC, baseline isolates of SSTI trial; assay type: cell-based
# [5] = tested on: skin and soft tissue infections (SSTI); test: Phase II trial in deep skin and soft tissue infections: clinical response; assay type: in vivo, human; conditions: exploratory subanalysis
# Procedure: as §1
# There were 62 patients randomized into the study, all received at least one dose of study medication. Four study populations were evaluated for safety and efficacy and were defined as follows: The intent-to-treat (I) population included all patients who received at least one dose of study drug (all randomized study subjects).
# The effectiveness of the three treatment regimens was determined by assessing the patients' clinical response and the documented or presumed microbiological responses. The primary efficacy endpoint was clinical response at the follow-up visit for the clinically evaluable population. Clinical response, for both EOT and FU visits, was categorized as success (cure or improvement) or failure (including indeterminate results). Patients classified as successes must not have received additional systemic antibacterial treatment for their infection. Failure was defined as persistence of one or more local or systemic signs and symptoms of SSTI such that treatment with new or additional systemic antibacterial agents was required for the SSTI.
# [6] = tested on: Miscellaneous Streptococcus and nontypeable strains; test: Dalbavancin MIC, baseline isolates of SSTI trial; assay type: cell-based; conditions: for Dalbavancin MIC, Miscellaneous Streptococcus and nontypeable strains: MITT
# [7] = Pharmacokinetics and renal excretion in healthy subjects; conditions: human, in vivo, iv, 1000 mg; for half-life: healthy subjects, single 1000 mg IV
# Procedure: Blood samples were drawn into heparinized tubes and centrifuged. Plasma was separated and stored frozen at −20° C. until time of assay. Plasma and urine samples were assayed for dalbavancin using validated LC/MS/MS methods. […] The peak concentration (Cmax) values were obtained directly from the observed data. The area under the plasma concentration-time curve (AUC) was calculated using the linear trapezoidal rule. Clearance (CL) was computed as dose/AUC. The elimination half life (t1/2) was estimated by linear regression of the log-linear portion of the log concentration versus time curve. Estimates of the volume of distribution (Vz) was calculated using the regression parameters, while the volume of distribution at steady state (Vss) was calculated from the area under the first moment curve (AUMC) multiplied by the dose and divided by AUC. The cumulative amount of dalbavancin excreted in urine was determined as the integrand of the urine excretion rate (AURC). CLR or renal clearance, was calculated as the ratio: CLR=AURC/AUC.
# [8] = tested on: Streptococcus pyogenes; test: Dalbavancin MIC, baseline isolates of SSTI trial; assay type: cell-based; conditions: read-out: Dalbavancin MIC, Streptococcus pyogenes, MITT, two-dose group
# [9] = tested on: Gram-positive isolates, including MRSA; test: Dalbavancin MIC, Gram-positive isolates of SSTI trial; assay type: cell-based; conditions: Staphylococcus aureus, read-out: MICs against Gram-positive isolates, including MRSA
# [10] = target: T1, Human albumin (Homo sapiens, UniProt P02768); conditions: pH 7.4
# Procedure: (§3) Integrated heat effects, after correction for heats of dilution, were analyzed by non-linear regression using a simple single-site binding model with the standard Microcal ORIGIN software package. Raw data (μcal/sec) for each injection were integrated to give the total heat effect per addition, then divided by amount of injectant to give kcal/mole of injectant. The same integration was applied for control dilution effects, and this was subtracted from the actual titration data. This provided a differential of the binding curve in which the extent of binding is proportional to the total heat liberated (or absorbed). This was then analyzed by non-linear regression methods in terms of various standard binding models.
# [11] = target: T1, Human albumin; test: Protein binding by isothermal titration microcalorimetry; conditions: Apparent binding affinity Ka, Human albumin, pH 7.4, ± SD of fit
# Procedure: as §3
# [12] = target: Rat albumin (Rattus norvegicus, UniProt P02770); test: as above; conditions: Apparent binding affinity Ka, pH 7.4, ± SD of fit
# Procedure: as §3
# [13] = target: Bovine albumin (Bos taurus, UniProt P02769); test: as above
# Procedure: as §3
# [14] = Safety assessments in healthy subjects; conditions: single 1000 mg IV
# Procedure: (§4) Adverse events were recorded and assessed for severity and relationship to study drug. Laboratory data (chemistry panel, CBC with differential, urinalysis) were collected and assessed for changes from baseline and out-of-range values. ECG, physical examination, and vital signs were obtained, and changes from baseline were assessed.
# [15] = tested on: human α-glycoprotein; conditions: pH 7.4
# Procedure: as §3
# [16] = target: Dog albumin (Canis lupus familiaris, UniProt P49822); test: Protein binding by isothermal titration microcalorimetry; conditions: Apparent binding affinity Ka, pH 7.4, ± SD of fit
# Procedure: as §3
# [17] = Rat quantitative tissue distribution (QTD) study; conditions: male rats, single IV infusion 20 mg/kg
# Procedure: as §2
# Rats (3 per time-point) were euthanized at 12, 24, 48, 72, 96, 120, 144, 168, 336, 840, 1176 and 1680 hours post dose for collection of blood, plasma, and tissues (including carcass). All samples were analyzed by LSC.
# As part of the QTD studies, bile samples were collected from bile duct cannulated rats (4 animals) through 384 h (16 days) post-dose.
# [18] = human, in vivo
# Procedure: as §4
# [19] = tested on: methicillin-resistant S. aureus (MRSA); assay type: in vivo
# Procedure: The effectiveness of the three treatment regimens was determined by assessing the patients' clinical response and the documented or presumed microbiological responses. The primary efficacy endpoint was clinical response at the follow-up visit for the clinically evaluable population. Clinical response, for both EOT and FU visits, was categorized as success (cure or improvement) or failure (including indeterminate results). […] Failure was defined as persistence of one or more local or systemic signs and symptoms of SSTI such that treatment with new or additional systemic antibacterial agents was required for the SSTI.
# Microbiological outcome, a secondary efficacy variable, was assessed in the subpopulation of patients who had microbiologically documented SSTI (i.e., at least one identified baseline pathogen). A microbiologic response was assessed for each Gram-positive pathogen identified at baseline (i.e., eradication, presumed eradication, persistence, presumed persistence). For patients for whom follow-up cultures were not performed, the microbiologic responses for baseline pathogens were presumed on the basis of the clinical response. […] At both the EOT and FU visits, colonization and superinfection were assessed. […]
# [20] = two-dose 1000 mg IV day 1, 500 mg day 8
# T1 sequence (P02768 25-609): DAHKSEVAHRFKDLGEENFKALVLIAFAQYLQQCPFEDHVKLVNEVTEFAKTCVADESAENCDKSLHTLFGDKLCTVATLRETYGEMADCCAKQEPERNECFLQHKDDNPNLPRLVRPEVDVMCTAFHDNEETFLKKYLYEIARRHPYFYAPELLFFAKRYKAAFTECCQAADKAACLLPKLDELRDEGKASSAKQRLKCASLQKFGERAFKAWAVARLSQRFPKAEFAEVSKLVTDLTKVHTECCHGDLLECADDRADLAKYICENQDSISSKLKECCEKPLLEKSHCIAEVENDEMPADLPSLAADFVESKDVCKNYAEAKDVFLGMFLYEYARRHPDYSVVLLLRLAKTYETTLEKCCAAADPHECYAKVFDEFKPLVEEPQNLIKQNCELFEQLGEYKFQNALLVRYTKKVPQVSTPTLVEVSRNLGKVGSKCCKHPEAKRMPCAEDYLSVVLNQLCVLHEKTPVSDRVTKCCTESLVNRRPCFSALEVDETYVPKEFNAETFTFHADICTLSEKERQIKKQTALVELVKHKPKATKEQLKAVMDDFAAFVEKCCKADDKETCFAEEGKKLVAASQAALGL
# Chain of Rat albumin (P02770 25-608): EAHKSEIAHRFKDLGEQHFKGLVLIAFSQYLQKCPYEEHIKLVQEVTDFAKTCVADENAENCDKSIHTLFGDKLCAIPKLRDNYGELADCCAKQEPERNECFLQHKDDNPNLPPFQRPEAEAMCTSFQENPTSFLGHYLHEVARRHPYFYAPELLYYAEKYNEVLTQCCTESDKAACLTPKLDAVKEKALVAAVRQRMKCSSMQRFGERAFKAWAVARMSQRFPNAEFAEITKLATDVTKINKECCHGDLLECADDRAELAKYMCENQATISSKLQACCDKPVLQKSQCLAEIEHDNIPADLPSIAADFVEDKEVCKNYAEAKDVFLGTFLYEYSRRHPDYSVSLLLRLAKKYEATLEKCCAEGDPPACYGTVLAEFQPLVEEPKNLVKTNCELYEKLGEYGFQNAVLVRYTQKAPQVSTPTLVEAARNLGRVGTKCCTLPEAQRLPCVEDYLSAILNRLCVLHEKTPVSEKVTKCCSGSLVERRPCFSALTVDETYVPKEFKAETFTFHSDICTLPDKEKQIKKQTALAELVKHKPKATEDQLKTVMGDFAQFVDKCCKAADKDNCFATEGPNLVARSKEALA
# Chain of Dog albumin (P49822 25-608): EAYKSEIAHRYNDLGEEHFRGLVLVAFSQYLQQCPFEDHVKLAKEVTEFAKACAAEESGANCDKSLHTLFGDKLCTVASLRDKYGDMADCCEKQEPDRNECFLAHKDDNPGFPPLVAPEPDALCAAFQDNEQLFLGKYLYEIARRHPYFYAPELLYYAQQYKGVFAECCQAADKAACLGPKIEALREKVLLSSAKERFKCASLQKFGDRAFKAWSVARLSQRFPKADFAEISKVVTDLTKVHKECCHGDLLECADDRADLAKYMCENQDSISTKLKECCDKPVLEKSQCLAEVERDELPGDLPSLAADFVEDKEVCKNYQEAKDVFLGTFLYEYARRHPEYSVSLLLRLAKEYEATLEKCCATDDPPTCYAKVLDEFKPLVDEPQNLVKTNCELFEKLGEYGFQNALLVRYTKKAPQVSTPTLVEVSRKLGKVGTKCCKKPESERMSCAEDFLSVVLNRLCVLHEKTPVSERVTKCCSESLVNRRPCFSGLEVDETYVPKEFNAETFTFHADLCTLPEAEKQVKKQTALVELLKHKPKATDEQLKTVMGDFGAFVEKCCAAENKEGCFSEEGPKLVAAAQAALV
# Chain of Bovine albumin (P02769 25-607): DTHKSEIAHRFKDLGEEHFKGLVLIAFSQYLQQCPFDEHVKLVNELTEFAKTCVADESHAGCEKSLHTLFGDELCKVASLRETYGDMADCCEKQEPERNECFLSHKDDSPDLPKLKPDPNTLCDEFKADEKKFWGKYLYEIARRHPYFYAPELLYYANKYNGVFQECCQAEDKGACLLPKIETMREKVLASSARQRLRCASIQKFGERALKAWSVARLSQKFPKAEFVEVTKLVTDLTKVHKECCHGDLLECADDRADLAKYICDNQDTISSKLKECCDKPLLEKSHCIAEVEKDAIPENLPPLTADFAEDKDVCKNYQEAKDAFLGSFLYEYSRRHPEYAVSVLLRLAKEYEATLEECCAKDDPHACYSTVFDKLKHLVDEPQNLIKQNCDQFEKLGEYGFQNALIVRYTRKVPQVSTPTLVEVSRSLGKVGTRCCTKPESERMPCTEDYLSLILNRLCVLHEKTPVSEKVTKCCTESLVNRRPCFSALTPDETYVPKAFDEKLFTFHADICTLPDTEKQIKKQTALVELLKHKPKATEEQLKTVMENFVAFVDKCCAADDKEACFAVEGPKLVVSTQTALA
compound,measurement,setting,value
CN[C@H]1C(=O)N[C@@H]2Cc3ccc(cc3)Oc3cc4cc(c3O[C@@H]3O[C@H](C(=O)O)[C@@H](O)[C@H](O)[C@H]3NC(=O)CCCCCCCCC(C)C)Oc3ccc(cc3Cl)[C@@H](O)[C@@H]3NC(=O)[C@H](NC(=O)[C@@H]4NC(=O)[C@@H](NC2=O)c2cc(cc(O)c2Cl)Oc2cc1ccc2O)c1ccc(O)c(c1)-c1c(O[C@H]2O[C@H](CO)[C@@H](O)[C@H](O)[C@@H]2O)cc(O)cc1[C@@H](C(=O)NCCCN(C)C)NC3=O [Dalbavancin],"Dalbavancin MIC range, All S. aureus",[1]; standard of care group,10 (0.016-0.25) mg/L
same,"Dalbavancin MIC, All S. aureus",[1]; two-dose group,11 (0.12) mg/L
same,AE leading to discontinuation of study medication,"[2]; human, in vivo",0%
same,≧1 AE,"[2]; human, in vivo",95%
same,≧1 severe AE,"[2]; human, in vivo",2 (10%)
same,Hepatotoxicity or nephrotoxicity,[2]; in vivo,no evidence that dalbavancin induces any degree of clinically significant hepatotoxicity or nephrotoxicity
same,Serious adverse events related to study drug,[2]; in vivo,no serious adverse events related to study drug treatment
same,Tolerability,[2]; in vivo,well tolerated
same,≧1 AE possibly/probably related to treatment,[2]; single-dose (N = 20),55%
same,≧1 AE possibly/probably related to treatment,[2]; two-dose (N = 21),48%
same,Dose remaining in the carcass,"[3]; male, Sprague-Dawley, 1680 h",4.5%
same,Radioactivity administered eliminated in urine and feces within the first week,"[3]; iv, 20 mg/kg",Approximately half
same,Share of excreted radioactivity eliminated in feces,"[3]; iv, 20 mg/kg",⅓
same,Share of excreted radioactivity eliminated in urine,"[3]; iv, 20 mg/kg",⅔
same,"Dalbavancin MIC, Group B streptococcus","[4]; MITT, standard of care group",2 (0.016) mg/L
same,MIC,"[4]; Streptococcus, read-out: Dalbavancin MIC, Group B streptococcus, MITT, two-dose group",0.016 µg/mL
same,"Clinical success rate, patients with deep or complicated SSTI at baseline",[5]; single-dose 1100 mg IV day 1,58.3%
same,"Clinical success rate, patients with deep or complicated SSTI at baseline",[5]; [20],93.8%
same,"Dalbavancin MIC, Miscellaneous Streptococcus and nontypeable strains",[6]; standard of care group,4 (0.016) mg/L
same,"Dalbavancin MIC, Miscellaneous Streptococcus and nontypeable strains",[6]; two-dose group,2 (0.016) mg/L
same,MIC,"[6]; Streptococcus, read-out: Dalbavancin MIC, Miscellaneous Streptococcus and nontypeable strains, MITT, single dose group",0.016 µg/mL
same,AUC,[7]; both sexes,23800 µg·h/mL
same,clearance,[7]; both sexes,0.718 mL/min
same,Vd,"[7]; both sexes, Apparent volume of distribution",> 10 L
same,CL renal,"[7]; both sexes, CLR",0.3 mL/min
same,Vd,"[7]; both sexes, VSS",11.5 L
same,Vd,"[7]; both sexes, VZ",16 L
same,half-life,[7]; both sexes,9 to 12 days
same,half-life,"[7]; both sexes, mean",10.7 days
same,CL,[7]; both,0.0431 L/h
same,CLR,[7]; both,0.0181 L/h
same,MIC,[8],0.016 µg/mL
same,MIC,[9],0.016 to 0.25 µg/mL
same,"Calculated percent Binding, Human albumin",[10]; 1 μM,98.8%
same,"Calculated percent Binding, Human albumin",[10]; 10 μM,98.8%
same,"Calculated percent Binding, Human albumin",[10]; 100 μM,98.7%
same,"Calculated percent Binding, Human albumin",[10]; 165 μM,98.6%
same,"Calculated percent Binding, Human albumin",[10]; 250 μM,98.5%
same,"Calculated percent Binding, Human albumin",[10]; 500 μM,98.0%
same,Kd,[11]; 25° C.,7.41 µM
same,Kd,[11]; 37° C.,7.52 µM
same,Kd,[12]; 25° C.,3.23 µM
same,Kd,[12]; 37° C.,3.57 µM
same,Kd,[13],7.25 µM
same,Deaths or serious adverse events,[14],No subject deaths or serious adverse events
same,"Calculated percent Binding, Human α-glycoprotein",[15]; 1 μM,73.0%
same,"Calculated percent Binding, Human α-glycoprotein",[15]; 10 μM,68.2%
same,"Calculated percent Binding, Human α-glycoprotein",[15]; 100 μM,26.2%
same,"Calculated percent Binding, Human α-glycoprotein",[15]; 165 μM,16.9%
same,"Calculated percent Binding, Human α-glycoprotein",[15]; 250 μM,11.4%
same,"Calculated percent Binding, Human α-glycoprotein",[15]; 500 μM,5.9%
same,Kd,[16]; 25° C.,16.1 µM
same,Kd,[16]; 37° C.,20 µM
same,Skin concentrations of drug-derived radioactivity relative to plasma,[17],as high as or higher than in plasma
same,"Eosinophilia, AE possibly related to study medication",[18],500 µL⁻¹
same,Intensity of reported AEs,[18],all of mild intensity
same,"Clinical success rate at FU, MITT patients with MRSA",[19]; single-dose 1100 mg IV day 1,50%
same,"Clinical success rate at FU, MITT patients with MRSA",[19]; [20],80%
